Laboratory results: US9233136B2, “4-amino-4-oxobutanoyl peptides as inhibitors of viral replication” (Achillion Pharmaceuticals, Inc., priority 2006, dated 2016)

These molecules were tested on Hepatitis C replicon in Huh-7 cells (assay: HCV replicon replication assay (NPT ELISA)). Settings: Hepatitis C virus, Huh-7, 72 h.
Type: cell-based
Protocol: Compounds claimed herein are tested for the ability to inhibit viral replication of the Hepatitis C replicon in cultured cells in which the HCV replicon construct has been incorporated. The HCV replicon system was described by Bartenschlager, et. al (Science, 285, pp. 110-113 (1999)). The replicon system is predictive of in vivo anti-HCV activity; compounds that are active in humans uniformly evidence activity in the replicon assay.
In this assay HCV replicon containing cells are treated with different concentrations of the test compound to ascertain the ability of the test compound to suppress replication of the HCV replicon. As a positive control, HCV replicon-containing cells are treated with different concentrations of interferon alpha, a known inhibitor of HCV replication. The replicon assay system includes Neomycin Phosphotransferase (NPT) as a component of the replicon itself in order to detect the transcription of replicon gene products in the host cell. Cells in which the HCV replicon is actively replicating have high levels of NPT; the level of NPT is proportional to HCV replication. […] The NPT level of each sample is measured using a captured ELISA.
A protocol for testing compounds for the ability to inhibit viral replication of the Hepatitis C replicon cultured cells in which the replicon construct has been incorporated, follows.
The HCV replicon contains, 5′-3′, the HCV-IRES, the neomycin phosphotransferase (neo) gene, the IRES of encephalomyocarditis virus, which directs translation of HCV sequences NS3 to NS5B, and the 3′-NTR. The sequence of the HCV replicon has been deposited in GenBank (Accession no. AJ242652).
The replicon is transfected into Huh-7 cells using standard methods such as electroporation.
The cells are then seeded onto 96-well plates at a density of 6000-7500 cells/100 microliters/well (6-7.5×10^5 cells/10 ml/plate). The plates are then incubated at 37° C. in a 5% CO2 incubator.
HCV replicon-containing cells are rinsed with once PBS once; 2 mls of trypsin are then added. Cells are incubated at 37° C. in a 5% CO2 incubator for 3-5 minutes. 10 mls of complete medium is added to stop the reaction. Cells are blown gently, put into a 15 ml tube, and spun at 1200 rpm for four minutes. The trypsin/medium solution is removed and 5 mls of medium (500 ml DMEM (high glucose)) from BRL catalog #12430-054; 50 mls 10% FBS, 5% Geneticin G418 (50 mg/ml, BRL catalog #10131-035), 5 ml MEM non-essential amino acids (100×BRL #11140-050) and 5 ml pen-strep (BRL #15140-148) is added. The cells and media are mixed carefully
Cells are plated with screening medium (500 ml DMEM (BRL #21063-029), 50 ml FBS (BRL #10082-147) and 5 ml MEM non-essential amino acid (BRL #11140-050) at 6000-7500 fcells/100 μl/well of 96 well plate (6-7.5×10^5 cells/10 ml/plate). Plates are placed into 37° C. 5% CO2 incubator overnight.
The following morning, drugs (test compounds or interferon alpha) are diluted in 96 well U bottom plates with media or DMSO/media, depending on the final concentration chosen for screening. Generally for 6 concentrations of each test compounds ranging from 10 micromolar to 0.03 micromolar are applied. 100 μl of the test compound dilution is placed in wells of the 96 well plate containing the HCV replicon cells. Media without drug is added to some wells as a negative controls. DMSO is known to affect cell growth. Therefore, if drugs diluted in DMSO are used, all wells, including negative control (media only) and positive control (interferon alpha) wells, must contain the same concentration of DMSO, for single dose screening. The plates are incubated at 37° C. in a humidified 5% CO2 environment for three days.
On day four, the NTPII assay is quantitated. The medium is poured from the plates and the plates are washed once in 200 μl of PBS. The PBS is then decanted and the plates tapped in a paper towel to remove any remaining PBS. […]
Work on `C=CC1CC1(NC(=O)[C@@H]1C[C@@H](Oc2cc(-c3ccccc3)nc3cc(OC)ccc23)CN1C(=O)[C@@H](CC(=O)N1CCC(O)C1)C(C)(C)C)C(=O)O` (stereo partly drawn) [Compound 42, 1-((2S,4R)-1-((2S)-2-tert-butyl-4-(3-hydroxypyrrolidin-1-yl)-4-oxobutanoyl)-4-(7-methoxy-2-phenylquinolin-4-yloxy)pyrrolidine-2-carboxamido)-2-vinylcyclopropanecarboxylic acid] yielded an EC50 of over 10 µM.
For `COc1ccc2c(O[C@@H]3C[C@H]4C(=O)N[C@]5(C(=O)NS(=O)(=O)C6CC6)C[C@H]5/C=C\CCCCC[C@H](CC(=O)N5CCCCC5)C(=O)N4C3)cc(-c3ccccc3)nc2c1` [Compound 58, (2R,6R,13aS,14aR,16aS,Z)-N-(cyclopropylsulfonyl)-2-(7-methoxy-2-phenylquinolin-4-yloxy)-5,16-dioxo-6-(2-oxo-2-(piperidin-1-yl)ethyl)-1,2,3,5,6,7,8,9,10,11,13a,14,14a,15,16,16a-hexadecahydrocyclopropa[e]pyrrolo[1,2-a] [1,4]diazacyclopentadecine-14a-carboxamide], the EC50 was under 0.1 µM.
With `C=CC1CC1(NC(=O)[C@@H]1C[C@@H](Oc2cc(-c3ccccc3)nc3cc(OC)ccc23)CN1C(=O)[C@@H](CC(=O)N1CCCCC1)C(C)(C)C)C(=O)OCC` (stereo partly drawn) [Compound 40, ethyl 1-((2S,4R)-1-((S)-2-tert-butyl-4-oxo-4-(piperidin-1-yl)butanoyl)-4-(7-methoxy-2-phenylquinolin-4-yloxy)pyrrolidine-2-carboxamido)-2-vinylcyclopropanecarboxylate] the EC50 was over 10 µM.
